Laboratory results: US8088828B2, “Treating benign prostate hyperplasia with SARMS” (priority 2002, dated 2012)

What was measured:
[1] = target: T1, human 5α-reductase type 2 (Homo sapiens, UniProt P31213); assay type: cell-based
T1 construct: expressed in transfected cells; host or cells: COS1 cells; expression vectors obtained from Dr. David W. Russell
T1 sequence (P31213 1-254): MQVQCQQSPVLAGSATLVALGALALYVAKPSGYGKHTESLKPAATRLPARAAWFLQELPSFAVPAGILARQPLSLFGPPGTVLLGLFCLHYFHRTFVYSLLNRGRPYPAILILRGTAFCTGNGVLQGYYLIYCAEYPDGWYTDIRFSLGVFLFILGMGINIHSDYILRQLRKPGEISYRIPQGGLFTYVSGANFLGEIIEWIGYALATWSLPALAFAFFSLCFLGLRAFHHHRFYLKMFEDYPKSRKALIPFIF
Method: (§1) Methods: COS1 (American Type Culture Collection, Manassas, Va.) cells were plated in twelve-well plates at a density of 60,000 cells/well and transiently transfected with expression vectors for human 5•-reductase (obtained from Dr. David W. Russell, Southwestern Medical Center, Dallas, Tex.). LipofectAMINE PLUS™ Reagent (Invitrogen, Carlsbad, Calif.) was used for transfection. pCMV•SPORT-•gal plasmid (Invitrogen, Carlsbad, Calif.) was co-transfected to monitor transfection efficiency. Forty-eight hours after transfection, testosterone (4 μM) and/or Compound VI (2 or 200 μM) were added to the medium and incubated at 37° C. Aliquots of the culture medium were removed after 2 hours and the reaction stopped by addition of ice-cold acetonitrile (1:1, vol:vol). Testosterone and Compound VI concentrations in the incubate were determined by HPLC using a reversed-phase column (μBondaPak C18, 3.9×300 mm, Waters Corporation, Milford, Mass.) and a mobile phase of 38% acetonitrile in deionized water at a flow rate of 1.5 ml/min. Analytes were detected by UV absorbance at 254 nm. Calibration curves were prepared using the peak areas to calculate the concentration of testosterone or Compound VI in the incubate at the completion of the reaction. Cells were lysed after the reaction and the cellular supernatant used to determine •-galactosidase activity and ensure equal transfection efficiency between wells.

[2] = target: T2, human 5α-reductase type 1 (Homo sapiens, UniProt P18405); assay type: cell-based
T2 construct: expressed in transfected cells; host or cells: COS1 cells; expression vectors obtained from Dr. David W. Russell
T2 sequence (P18405 1-259): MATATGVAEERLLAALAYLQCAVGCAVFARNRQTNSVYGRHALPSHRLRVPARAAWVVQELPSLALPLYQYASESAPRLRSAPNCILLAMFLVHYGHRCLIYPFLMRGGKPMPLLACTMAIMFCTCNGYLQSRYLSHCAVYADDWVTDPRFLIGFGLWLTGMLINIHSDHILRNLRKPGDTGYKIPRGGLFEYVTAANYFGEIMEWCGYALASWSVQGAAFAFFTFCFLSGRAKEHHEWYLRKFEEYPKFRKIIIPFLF
Method: as §1

[3] = tested on: male Sprague-Dawley rats (intact, hemi-orchidectomized, castrated); experiment: Plasma testosterone, FSH, LH and osteocalcin in rats of varying hormonal status; assay type: in vivo, rat; conditions: for Plasma FSH levels / Plasma LH levels / Plasma osteocalcin levels / Plasma testosterone levels: 0.5 mg/day osmotic pump, 14 days
Text: (§2) Methods: Compound VI was synthesized and characterized in the laboratory of Dr. Duane Miller at the University of Tennessee, Memphis, Tenn. Male Sprague-Dawley rats were purchased from Harlan Biosciences (Indianapolis, Ind.). The animals were maintained on a 12-h cycle of light and dark with food and water available ad libitum. All animal studies were reviewed and approved by the Animal Care and Use Committee of The Ohio State University, and conformed to the Principles of Laboratory Animal Care. Immature male Sprague-Dawley rats weighing […] were randomly distributed into 9 groups of 5 animals. One day before the initiation of drug treatment, groups 4 through 6 and groups 7 through 9 received unilateral or bilateral orchidectomy, respectively, via a midline scrotal incision. […] All drugs given to animals were freshly prepared as solutions in polyethylene glycol 300 (PEG 300). Groups 4 and 7 received treatment with vehicle alone (i.e., PEG 300). Animals in groups 3, 6, and 9 received testosterone propionate (TP, 0.5 mg/day) via implantation of subdermal osmotic pumps (Model 2002, Durect Corporation, Palo Alto, Calif.). Animals in groups 2, 5, and 8 received Compound VI (0.5 mg/day) via implantation of subdermal osmotic pumps. After 14 days of drug treatment, rats were weighed, anesthetized, and sacrificed. Blood samples were collected by venipuncture of the abdominal aorta. Plasma samples were analyzed for testosterone, FSH, LH and osteocalcin. Testosterone concentrations were measured by AniLytics Inc. (Gaithersburg, Md.). FSH and LH levels were measured by the National Hormone and Peptide Program (Dr. A F Parlow, UCLA, CA). Plasma osteocalcin levels were determined using a commercially available rat osteocalcin EIA kit from Biomedical Technologies Inc. (Stoughton, Mass.). The ventral prostates, seminal vesicles, and levator ani muscle were removed and weighed. Osmotic pumps were also removed from animals to check for correct pump operation. The weights of all organs were normalized to body weight, and analyzed for any statistically significant differences between groups using single-factor ANOVA with the alpha value set a priori at p<0.05. The weights of prostates and seminal vesicles were used as indices for evaluation of androgenic activity, and the levator ani muscle weight was used to evaluate the anabolic activity. Statistical analyses of parameters from complete blood count or serum chemical profiling, wherever applicable, were performed by single-factor ANOVA with the alpha value set a priori at p<0.05.

[4] = tested on: male Sprague-Dawley rats (intact, hemi-orchidectomized, castrated); experiment: Prostate, seminal vesicle and levator ani muscle weights in rats of varying hormonal status; assay type: in vivo, rat; conditions: 0.5 mg/day, 14 days
Text: as §2

[5] = tested on: intact male Sprague-Dawley rats; experiment: Organ weights in intact male rats after 3, 6 or 9 days of daily subcutaneous injections; assay type: in vivo, rat
Method: Methods: Male Sprague-Dawley rats were purchased from Harlan Biosciences (Indianapolis, Ind.). The animals were maintained on a 12-h cycle of light and dark with food and water available ad libitum. Male Sprague-Dawley rats weighing 189 to 226 g were randomly distributed into groups of 5 animals. The intact male rats were treated with hydroxy-flutamide (0.5, 1, 5, 10 or 25 mg/kg), finasteride (5 mg/kg), Compound VII (0.5, 1, 5, 10, 25 mg/kg) or vehicle for 3, 6, or 9 days. The drugs were dissolved in DMSO:PEG300 (20:80, v:v) and administered via daily subcutaneous injections, and the dosages were adjusted based on animal's body weight, which was measured on a daily basis. A group of castrated rats (n=5) was also included as control for each time point. […] The organ weights were normalized with the body weights. Percentage changes were determined by comparison to intact animals. Statistical analyses of all the parameters were performed by single-factor ANOVA with the alpha value set a priori at p<0.05.

[6] = Compound VI 2 μM, 2-hour incubation
[7] = testosterone 4 μM, Compound VI 2 μM or 200 μM, 2 hours
[8] = all surgical groups, 0.5 mg/day
[9] = testosterone 4 μM alone, 2 hours
[10] = 3 days, all doses (0.5, 1, 5, 10, mg/kg) s.c.

Compound | Plasma FSH levels ([3]; castrated rats) | Plasma LH levels ([3]; castrated rats) | Plasma osteocalcin levels ([3]; castrated rats) | Plasma testosterone levels ([3]; castrated rats) | Plasma FSH levels ([3]; hemi-orchidectomized rats) | Plasma LH levels ([3]; hemi-orchidectomized rats) | Plasma osteocalcin levels ([3]; hemi-orchidectomized rats) | Plasma testosterone levels ([3]; hemi-orchidectomized rats) | Plasma FSH levels ([3]; intact rats) | Plasma LH levels ([3]; intact rats) | Plasma osteocalcin levels ([3]; intact rats) | Plasma testosterone levels ([3]; intact rats) | Levator ani muscle weight normalized to body weight ([4]; castrated rats) | Prostate weight normalized to body weight ([4]; castrated rats) | Seminal vesicle weight normalized to body weight ([4]; castrated rats) | Levator ani muscle weight normalized to body weight ([4]; hemi-orchidectomized rats) | Prostate weight normalized to body weight ([4]; hemi-orchidectomized rats) | Seminal vesicle weight normalized to body weight ([4]; hemi-orchidectomized rats) | Levator ani muscle weight normalized to body weight ([4]; intact rats) | Prostate weight normalized to body weight ([4]; intact rats) | other results
CC(=O)Nc1ccc(OC[C@](C)(O)C(=O)Nc2ccc([N+](=O)[O-])c(C(F)(F)F)c2)cc1 [Compound VI] | 69.6 ± 11.7 ‡ ng/ml | 8.644 ± 2.799 ‡ ng/ml | 94.215 ± 12.568 ng/mL | 0.066 ± 0.148 ‡ ng/ml | 15.2 ± 2.2 ng/mL | 0.124 ± 0.115 ng/mL | 89.804 ± 15.517 ng/mL | 1.404 ± 0.810 ng/mL | 14.4 ± 1.7 ng/mL | 0.026 ± 0.037 ng/mL | 55.584 ± 9.715 ng/mL | 1.830 ± 0.510 ng/mL | 100.65 ± 10.86 % of intact control | 32.55 ± 11.65 % of intact control | 16.47 ± 5.21 % of intact control | 108.10 ± 8.92 % of intact control | 74.69 ± 8.44 % of intact control | 78.55 ± 13.58 % of intact control | 109.15 ± 14.68 % of intact control | 79 % of intact control | type of inhibition of 5α-reductase type 2 [1]: competitive inhibitor; metabolism of Compound VI by 5α-reductase type 2 [1, 6]: not metabolized; decrease in testosterone concentration in the presence of Compound VI [1, 7]: less than 10%; type of inhibition of 5α-reductase type 1 [2]: competitive inhibitor; metabolism of Compound VI by 5α-reductase type 1 [2, 6]: not metabolized; decrease in testosterone concentration in the presence of Compound VI [2, 7]: less than 10%; effect on plasma FSH and LH levels [3, 8]: no effect; effect on plasma osteocalcin levels ([3]; hemi-orchidectomized and castrated animals, 0.5 mg/day): significant increase; effect on plasma testosterone levels ([3]; intact, hemi-orchidectomized or castrated male rats, 0.5 mg/day): did not affect; size of the levator ani muscle ([4]; hemi-orchidectomized rats): 108 % of that observed in untreated hemi-orchidectomized animals; size of the prostate ([4]; hemi-orchidectomized rats): 75 % of that observed in untreated hemi-orchidectomized animals; size of the seminal vesicles ([4]; hemi-orchidectomized rats): 79 % of that observed in untreated hemi-orchidectomized animals; Seminal vesicle weight normalized to body weight ([4]; intact rats): 90.54 ± 12.10 % of intact control; changes in the size of the seminal vesicles or levator ani muscle ([4]; intact rats): no statistically significant changes; Prostate weight normalized to body weight ([4]; intact rats, listed as COMPOUND VI): 79.41 ± 9.32 % of intact control; adverse pharmacologic effects ([4]; rats): No adverse pharmacologic effects were observed
CCC(=O)O[C@H]1CC[C@H]2[C@@H]3CCC4=CC(=O)CC[C@]4(C)[C@H]3CC[C@]12C [TP, testosterone propionate, reference compound] | 58.0 ± 6.9 † ‡ ng/ml | 6.702 ± 1.513 ‡ ng/ml | 65.976 ± 11.213 ng/mL | 0.258 ± 0.103 † ‡ ng/ml | 17.2 ± 3.3 ng/mL | 0.124 ± 0.092 ng/mL | 77.236 ± 24.418 ng/mL | 2.366 ± 1.232 ng/mL | 11.4 ± 1.7 ng/mL | 0.168 ± 0.173 ng/mL | 74.952 ± 15.399 ng/mL | 1.482 ± 0.416 ng/mL | 87.27 ± 10.25 % of intact control | 76.78 ± 10.43 % of intact control | 63.48 ± 17.05 % of intact control | 98.63 ± 10.47 % of intact control | 98.57 ± 7.98 % of intact control | 114.19 ± 23.81 % of intact control | 95.61 ± 9.34 % of intact control | 97.45 ± 10.82 % of intact control | effect on plasma osteocalcin levels [3, 8]: no effect; effect on plasma FSH and LH levels ([3]; castrated male rats, 0.5 mg/day): significant decrease; Seminal vesicle weight normalized to body weight ([4]; intact rats): 103.95 ± 13.23 % of intact control
C[C@]12CC[C@H]3[C@@H](CCC4=CC(=O)CC[C@@]43C)[C@@H]1CC[C@@H]2O [Testosterone, testosterone, reference compound] | – | – | – | – | – | – | – | – | – | – | – | – | – | – | – | – | – | – | – | – | decrease in testosterone concentration (conversion to DHT) [1, 9]: 35%; decrease in testosterone concentration (conversion to DHT) [2, 9]: 34%
CC(C)(C)NC(=O)[C@H]1CC[C@H]2[C@@H]3CC[C@H]4NC(=O)C=C[C@]4(C)[C@H]3CC[C@]12C [finasteride] | – | – | – | – | – | – | – | – | – | – | – | – | – | – | – | – | – | – | – | – | effect on levator ani muscle weight ([5]; 3 days, 5 mg/kg s.c.): no effect; prostate weight (compared to intact animals) ([5]; 3 days, 5 mg/kg s.c.): 59%; seminal vesicle weight (compared to intact animals) ([5]; 3 days, 5 mg/kg s.c.): 38%; changes in levator ani muscle weight ([5]; 6 days, 5 mg/kg s.c.): no significant changes; prostate weight (compared to intact animals) ([5]; 6 days, 5 mg/kg s.c.): 67%; seminal vesicle weight (compared to intact animals) ([5]; 6 days, 5 mg/kg s.c.): 47%; change in levator ani muscle weight ([5]; 9 days, 5 mg/kg s.c.): not significantly changed; prostate weight (compared to intact animals) ([5]; 9 days, 5 mg/kg s.c.): 55%; seminal vesicle weight (compared to intact animals) ([5]; 9 days, 5 mg/kg s.c.): 29%
CC(C)(O)C(=O)Nc1ccc([N+](=O)[O-])c(C(F)(F)F)c1 [hydroxy-flutamide] | – | – | – | – | – | – | – | – | – | – | – | – | – | – | – | – | – | – | – | – | levator ani muscle weight (compared to intact animals) [5, 10]: ~85%; prostate weight (normalized to body weight, compared to intact animals) [5, 10]: approximately 60%; seminal vesicle weight (compared to intact animals) [5, 10]: ~50%; levator ani muscle weight (compared to intact animals) ([5]; 6 days, 25 mg/kg s.c.): 65%; prostate weight (compared to intact animals) ([5]; 6 days, 25 mg/kg s.c.): 54%; seminal vesicle weight (compared to intact animals) ([5]; 6 days, 25 mg/kg s.c.): 41%; organ weights (prostate, seminal vesicle, levator ani muscle) ([5]; 6 days, lower dose groups (0.5, 1, 5, 10 mg/kg) s.c.): returned to the levels observed in intact animals; effects on all the organ weights compared to previous time points ([5]; 9 days, 25 mg/kg s.c.): maintained its effects on all the organ weights at a similar level; changes in prostate, seminal vesicle and levator ani muscle weights ([5]; 9 days, lower doses (0.5, 1, 5, 10 mg/kg) s.c., dose-dependent): moderate decreases
